Molecular target: c-Met (Homo sapiens, UniProt P08581)
Test: Ki determination for the inhibition of c-Met (standard radiometric kinase assay)
Assay type: biochemical
Settings: radiometric 33P-ATP assay, 1.0 nM c-Met, 35 μM ATP, 0.5 mg/mL polyE4Y, competitive tight-binding fit
Protocol: Ki Determination for the Inhibition of c-Met
Compounds of the invention were screened for their ability to inhibit c-Met kinase activity using a standard radiometric assay. Briefly, in this kinase assay the transfer of the terminal ^33P-phosphate in ^33P-ATP to substrate polyE4Y is interrogated. The assay was carried out in 96-well plates to a final volume of 100 μL per well containing 1.0 nM c-Met, 100 mM HEPES (pH 7.5), 10 mM MgCl2, 25 mM NaCl, 0.01% BSA, 1 mM DTT, 0.5 mg/mL polyE4Y, and 35 μM ATP. Accordingly, compounds of the invention were dissolved in DMSO to make 10 mM initial stock solutions. Serial dilutions in DMSO were then made to obtain the final solutions for the assay. A 1.5 μL aliquot of DMSO or inhibitor in DMSO was added to each well. The reaction was initiated by the addition of ^33P-ATP and polyE4Y (obtained from Sigma). After 20 min, the reaction was quenched with 50 μL of 30% trichloroacetic acid (TCA) containing 4 mM ATP. The reaction mixture was transferred to the 0.66 mm GF filter plates (Corning) and washed three times with 5% TCA. Following the addition of 50 μL of Ultimate Gold™ high efficiency scintillant (Packard Bioscience), the samples were counted in a Packard TopCount NXT Microplate Scintillation and Luminescence Counter (Packard BioScience). The Ki values were calculated using Microsoft Excel Solver macros to fit the data to the kinetic model for competitive tight-binding inhibition.

Chain of c-Met (P08581 25-1390): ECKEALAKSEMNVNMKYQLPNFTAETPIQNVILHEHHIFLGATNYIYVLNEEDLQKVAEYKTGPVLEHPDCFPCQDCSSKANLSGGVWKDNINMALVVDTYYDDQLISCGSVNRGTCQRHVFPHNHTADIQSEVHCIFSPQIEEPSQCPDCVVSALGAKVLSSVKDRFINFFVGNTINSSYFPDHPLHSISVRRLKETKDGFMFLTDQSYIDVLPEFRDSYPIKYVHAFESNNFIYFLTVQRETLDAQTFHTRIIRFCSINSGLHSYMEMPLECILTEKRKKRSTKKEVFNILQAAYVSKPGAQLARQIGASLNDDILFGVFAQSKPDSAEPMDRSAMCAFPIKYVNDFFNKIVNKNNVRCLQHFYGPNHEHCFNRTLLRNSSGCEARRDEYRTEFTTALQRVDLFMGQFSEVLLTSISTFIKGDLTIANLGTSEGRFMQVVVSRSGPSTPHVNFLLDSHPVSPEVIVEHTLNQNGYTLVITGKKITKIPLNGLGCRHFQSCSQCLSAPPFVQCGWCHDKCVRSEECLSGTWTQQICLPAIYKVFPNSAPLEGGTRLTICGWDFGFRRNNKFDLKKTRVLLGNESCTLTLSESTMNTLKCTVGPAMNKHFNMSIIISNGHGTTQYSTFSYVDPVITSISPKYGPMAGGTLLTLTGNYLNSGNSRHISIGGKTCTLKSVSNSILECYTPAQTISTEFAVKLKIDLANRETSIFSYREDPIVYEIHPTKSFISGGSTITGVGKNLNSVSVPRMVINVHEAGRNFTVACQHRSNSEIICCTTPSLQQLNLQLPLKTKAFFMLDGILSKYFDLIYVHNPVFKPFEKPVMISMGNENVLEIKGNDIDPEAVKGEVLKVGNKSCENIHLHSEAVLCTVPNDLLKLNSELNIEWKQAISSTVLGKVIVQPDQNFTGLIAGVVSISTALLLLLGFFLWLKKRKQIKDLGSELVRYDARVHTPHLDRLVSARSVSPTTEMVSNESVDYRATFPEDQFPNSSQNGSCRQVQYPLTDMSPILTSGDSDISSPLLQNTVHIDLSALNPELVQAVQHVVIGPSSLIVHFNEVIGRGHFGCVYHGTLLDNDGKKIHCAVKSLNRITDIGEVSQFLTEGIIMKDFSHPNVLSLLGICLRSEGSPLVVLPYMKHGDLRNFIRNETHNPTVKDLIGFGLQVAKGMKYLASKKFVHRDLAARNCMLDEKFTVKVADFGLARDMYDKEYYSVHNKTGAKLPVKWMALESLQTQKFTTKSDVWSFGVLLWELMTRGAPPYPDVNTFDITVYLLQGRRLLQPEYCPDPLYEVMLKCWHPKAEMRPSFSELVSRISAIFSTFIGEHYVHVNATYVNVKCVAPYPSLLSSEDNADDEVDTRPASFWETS

Row | Ki [nM] | SMILES
1 | ≤ 250 | C[C@@H](NC(=O)c1nc(-c2cnn(C3CCNCC3)c2)cnc1N)c1nnc2ccc(Nc3cccc(Cl)c3)nn12 [Compound 62]
2 | ≤ 250 | C[C@@H](NC(=O)c1nccnc1N)c1nnc2ccc(Nc3cccc(Cl)c3)nn12 [Compound 14, N—((R)-1-(6-(3-chlorophenylamino)-[1,2,4]triazolo[4,3-b]pyridazin-3-yl)ethyl)-3-aminopyrazine-2-carboxamide]
3 | ≤ 250 | C[C@@H](NC(=O)c1nc(-c2ccc(CN3CCCC3)cc2)cnc1N)c1nnc2ccc(-c3ccccc3)nn12 [Compound 80]
4 | ≤ 250 | C[C@@H](NC(=O)c1nc(-c2ccc(CN3CCCC3)c(F)c2)cnc1N)c1nnc2ccc(Nc3cccc(Cl)c3)nn12 [Compound 70]
5 | ≤ 250 | Clc1cccc(Nc2ccc3nnc(COCc4cccnc4)n3n2)c1 [Compound 2, 3-(((pyridin-3-yl)methoxy)methyl)-N-(3-chlorophenyl)-[1,2,4]triazolo[4,3-b]pyridazin-6-amine]
6 | 250 to 2500 | CN(Cc1cccnc1N)Cc1nnc2ccc(Nc3cccc(Cl)c3)nn12 [Compound 11, N-(3-chlorophenyl)-3-(2-(N-((2-aminopyridin-3-yl)methyl)-N-(methyl)amino)methyl)-[1,2,4]triazolo[4,3-b]pyridazin-6-amine]
7 | ≤ 250 | C[C@@H](NC(=O)c1nc(-c2ccc(C3(O)CCNCC3)cc2)cnc1N)c1nnc2ccc(Nc3cccc(Cl)c3)nn12 [Compound 68]
8 | ≤ 250 | C[C@@H](NC(=O)c1nc(-c2ccoc2)cnc1N)c1nnc2ccc(Nc3cccc(Cl)c3)nn12 [Compound 32]
9 | 250 to 2500 | C[C@H](NC(=O)c1nc(-c2ccccc2)cnc1N)c1nnc2ccc(Nc3cccc(Cl)c3)nn12 [Compound 28]
10 | ≤ 250 | C[C@@H](NC(=O)c1nc(C2CCCC2)cnc1N)c1nnc2ccc(Nc3cccc(Cl)c3)nn12 [Compound 40]
11 | ≤ 250 | C[C@@H](NC(=O)c1nc(C2=CCCC2)cnc1N)c1nnc2ccc(Nc3cccc(Cl)c3)nn12 [Compound 33]
12 | ≤ 250 | C[C@@H](NC(=O)c1nc(-c2ccc(N3CCNCC3)cc2)cnc1N)c1nnc2ccc(Nc3cccc(Cl)c3)nn12 [Compound 72]
13 | > 2500 | CN(Cc1nnc2ccc(Nc3cccc(Cl)c3)nn12)C(=O)c1cccnc1 [Compound 12]

From patent publication US8481538B2, “Heterocyclic inhibitors of c-Met and uses thereof” (Vertex Pharmaceuticals Incorporated, priority 2006, dated 2013)
